pEC50: −log10 of the molar value.

Chain of GPR35 (Q9HC97 whole entry): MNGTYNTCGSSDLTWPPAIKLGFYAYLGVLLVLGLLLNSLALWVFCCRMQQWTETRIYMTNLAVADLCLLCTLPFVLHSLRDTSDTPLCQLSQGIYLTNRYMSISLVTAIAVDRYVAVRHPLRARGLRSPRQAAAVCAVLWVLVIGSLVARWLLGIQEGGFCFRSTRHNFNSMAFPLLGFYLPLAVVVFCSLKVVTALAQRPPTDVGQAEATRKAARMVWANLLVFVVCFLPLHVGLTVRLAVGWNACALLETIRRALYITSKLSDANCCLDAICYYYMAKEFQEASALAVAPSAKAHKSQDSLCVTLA

This test concerns the target GPR35 (Homo sapiens, UniProt Q9HC97). Description: label-free dynamic mass redistribution. The test is classed as cell-based. The settings on record: read-out: EC50/IC50; agonist mode; HBSS, 10 mM HEPES, pH 7.4.
Regarding `COc1c(O)cc2occ(-c3ccc(O)cc3)c(=O)c2c1O` [LCDD-41, tectorigenin], the pEC50 is below 3.70.
For `O=C1c2c(O)cc(O)cc2O[C@H](c2ccc(O)c(O)c2)[C@H]1O` [LCDD-68, taxifolin] the value was below 3.70.
Turning to `O=C(/C=C/c1ccc(O)c(O)c1)O[C@@H]1[C@H](O)C[C@@](O)(C(=O)O)C[C@H]1OC(=O)/C=C/c1ccc(O)c(O)c1` [LCDD-79, isochlorogenic acid C], the pEC50 was 3.94.
The result for `O=C(/C=C/c1ccc(O)cc1)c1ccc(O)cc1O` [LCDD-88, isoliquiritigenin] reads below 3.70.
The result for `COc1c(/C=C/C(=O)c2ccc(O)cc2)ccc(O)c1O` [LCDD-93, licochalcone B] reads 4.60; that for `O=C(O)[C@H]1O[C@@H](Oc2cc3oc(-c4ccccc4)cc(=O)c3c(O)c2O)[C@H](O)[C@@H](O)[C@@H]1O` [LCDD-117, baicalin], below 3.70.

These data come from article PMC8329432 (Journal of Ethnopharmacology, 2021).
